Source: patent US20200291391A1, “CROSS-LINKED EPITOPES AND METHODS OF USE THEREOF” (Indi Molecular, Inc., priority 2019, published 2020)
“Also recorded” adds a separate entry of the source. Where a SMILES comes first, the peptide text is derived from it. Bridges are numbered along the chain shown (N, C = ends). Triazole bridges read from a SMILES are 1,4-linked. Where no end group is shown, it is not given here. [ ]: non-standard residue; d: D form. Lys(N3) = [N-]=[N+]=NCCCC[C@H](N)C(=O)O; Pra = C#CC[C@H](N)C(=O)O

Experiments:
epitope B2 = biological target: T1, epitope B2 (Homo sapiens, UniProt P01732, L47X); test: Epitope bound by ligand; assay type: binding
T1 construct: host or cells: synthetic peptide (per the listing)
Method: Epitope B2 ligand tfpkk (SEQ ID NO:21) and the three hit ligands selected against CD8 epitopes A2, B2, H, and J were tested for binding to CD8+ and CD8− cells by flow cytometry.

CD8+SupT1 cells = test: Flow cytometry binding to CD8+ cells; assay type: cell-based; conditions: for binding to CD8+SupT1 cells by flow cytometry: with the 1kPEG linker; for selective binding to CD8+ cells in flow cytometry: SupT1 (CD8+) vs Jurkat (CD8-) cells, FIG. 11
Method: (§1) Three hits were left after this screening (Table 3). These hits were assessed in solid phase ELISA and in flow cytometry experiments.
(§2) Binding of krsah (SEQ ID NO:27) was detected on both CD8+SupT1 cells and CD8−Jurkat cells. The mean fluorescence intensity ratio to each of the ligands tfpkk (SEQ ID NO:21), krsah (SEQ ID NO:27), and snprk (SEQ ID NO:28) was determined (Table 4). The mean fluorescence intensity ratio of different amounts of the ligand tfpkk (SEQ ID NO:21) was determined (Table 5).
(§3) Binding of Biotin-1kPEG-tfpkk (SEQ ID NO:21) to CD8+SupT1 cells or CD8−Jurkat was performed at room temperature (RT) or 4° C.
(§4) Concentration of biotin-1kPEG-tfpkk (SEQ ID NO:21) and -nfyrr (SEQ ID NO:32) was titrated on SupT1 and Jurkat cells. The biotin-1kPEG-ligands were incubated with CD8+SupT1 cells and CD8−Jurkat cells at a concentrations of […].

[1] = biological target: T2, CD8 epitopes A, B, C, D, and E (Homo sapiens, UniProt P01732, M123X); test: Bead-coupled alkyne peptide screened with azide- and biotin-containing epitopes, alkaline phosphatase-streptavidin development; assay type: binding; conditions: D, and E tested
T2 construct: host or cells: synthetic peptide (per the listing)
Method: The epitope E ligand used in the biligand is tfpkk (SEQ ID NO:21). It was determined that tfpkk (SEQ ID NO:21) binds to epitope E by screening an alkyne-containing tfpkk peptide (SEQ ID NO:21) coupled to a bead (FIG. 8) with azide- and biotin-containing epitopes A, B, C, D, and E (FIG. 9). The epitopes used in the screen were: Epitope A (a.a. 1-10): Biotin-PEG3-[Az4]-SQFRVSPLDR (SEQ ID NO:22); Epitope B (a.a. 24-32): Biotin-PEG3-[Az4]-VLLSNPTSG (SEQ ID NO:23); Epitope C (a.a. 58-77): Biotin-PEG3-KAAEGLDTQ-[Az4]-FSGKRLGDTF (SEQ ID NO:24); Epitope D (a.a. 68-83): Biotin-PEG3-FSGKRL-[Az4]-DTFVLTLSD (SEQ ID NO:25); Epitope E (a.a. 95-110): Biotin-PEG3-SALSNSI-[Az4]-YFSHFVPV (SEQ ID NO:26).
This is in agreement with docking calculations of binding affinities of the epitopes to tfpkk (SEQ ID NO:21) and a control peptide (krsah; SEQ ID NO:27) (Table 2).

CD8−Jurkat cells = test: Flow cytometry binding to CD8- cells; assay type: cell-based; conditions: with the 1kPEG linker
Method: as §1, §2, §3, §4

| Molecule | epitope bound (epitope B2) | binding to CD8+SupT1 cells by flow cytometry (CD8+SupT1 cells) | color development of beads with alkaline phosphatase-linked streptavidin [1] | binding to CD8−Jurkat cells by flow cytometry (CD8−Jurkat cells) | selective binding to CD8+ cells in flow cytometry (CD8+SupT1 cells) |
| --- | --- | --- | --- | --- | --- |
| tfpkk: CD8 ligand peptide; epitope E ligand used in the biligand ([dT][dF][dP][dK][dK]) | bind to epitope B2 | observed | color only when epitope E was used | little binding |  |
| nsprw: CD8 ligand hit of four epitope cocktail screening ([dN][dS][dP][dR][dW]) |  |  |  |  | weak (and weakly selective) binding to CD8+ cells |
| C[C@H](O)[C@H]1NC(=O)[C@@H](Cc2ccc(O)cc2)NC(=O)[C@@H](Cc2c[nH]cn2)NC(=O)[C@@H](CCCCN)NC(=O)[C@@H](N)Cc2cn(nn2)CCCC[C@@H](C(N)=O)NC(=O)[C@@H](CC(N)=O)NC1=O [khytn] (H-[Pra][dK][dH][dY][dT][dN][Lys(N3)]-NH2; triazole 1-7; N-terminus assumed) | bind to epitope B2 |  |  |  |  |
| krsah: CD8 ligand hit; control peptide in docking ([dK][dR][dS][dA][dH]) |  | can be detected |  | detected; also recorded: also observed |  |
| herlk: CD8 ligand hit of four epitope cocktail screening ([dH][dE][dR][dL][dK]) |  |  |  |  | weakly selective binding to CD8+ cells |
